Experimental data taken from ChEMBL document CHEMBL1158268, “Antiplatelet of vasorelaxing actions of some benzylisoquinoline and phenanthrene alkaloids” (1996).

Experiments:
Design in all cases: scale not given: the % may be the effect or the level left
Platelet [1] = assay: Inhibition of platelet-activity factor-induced platelet aggregation in rabbit platelet-rich plasma at 100 ug/ml by turbidimetric method; type: functional, Oryctolagus cuniculus
Platelet [2] = assay: Inhibition of adenosine diphosphate-induced platelet aggregation in rabbit platelet-rich plasma at 100 ug/ml by turbidimetric method; type: functional, Oryctolagus cuniculus
Platelet [3] = assay: Inhibition of arachidonic acid-induced platelet aggregation in rabbit platelet-rich plasma at 100 ug/ml by turbidimetric method; type: functional, Oryctolagus cuniculus
Platelet [4] = assay: Inhibition of collagen-induced platelet aggregation in rabbit platelet-rich plasma at 100 ug/ml by turbidimetric method; type: functional, Oryctolagus cuniculus
Aorta [5] = assay: Vasorelaxant activity against norepinephrine-induced phasic contraction in Wistar rat thoracic aorta at 100 ug/ml; type: functional
Aorta [6] = assay: Vasorelaxant activity against high potassium-induced contraction in Wistar rat thoracic aorta at 100 ug/ml; type: functional
Aorta [7] = assay: Vasorelaxant activity against norepinephrine-induced tonic contraction in Wistar rat thoracic aorta at 100 ug/ml; type: functional
Platelet [8] = assay: Inhibition of adenosine diphosphate-induced platelet aggregation in rabbit platelet-rich plasma at 50 ug/ml by turbidimetric method; type: functional, Oryctolagus cuniculus
Platelet [9] = assay: Inhibition of arachidonic acid-induced platelet aggregation in rabbit platelet-rich plasma at 50 ug/ml by turbidimetric method; type: functional, Oryctolagus cuniculus
Platelet [10] = assay: Inhibition of platelet-activity factor-induced platelet aggregation in rabbit platelet-rich plasma at 50 ug/ml by turbidimetric method; type: functional, Oryctolagus cuniculus
Platelet [11] = assay: Inhibition of collagen-induced platelet aggregation in rabbit platelet-rich plasma at 50 ug/ml by turbidimetric method; type: functional, Oryctolagus cuniculus
Aorta [12] = assay: Vasorelaxant activity against high potassium-induced contraction in Wistar rat thoracic aorta at 20 ug/ml; type: functional
Aorta [13] = assay: Vasorelaxant activity against norepinephrine-induced phasic contraction in Wistar rat thoracic aorta at 20 ug/ml; type: functional
Aorta [14] = assay: Vasorelaxant activity against norepinephrine-induced tonic contraction in Wistar rat thoracic aorta at 20 ug/ml; type: functional
Platelet [15] = assay: Inhibition of collagen-induced platelet aggregation in rabbit platelet-rich plasma at 25 ug/ml by turbidimetric method; type: functional, Oryctolagus cuniculus
Platelet [16] = assay: Inhibition of adenosine diphosphate-induced platelet aggregation in rabbit platelet-rich plasma at 25 ug/ml by turbidimetric method; type: functional, Oryctolagus cuniculus
Platelet [17] = assay: Inhibition of arachidonic acid-induced platelet aggregation in rabbit platelet-rich plasma at 25 ug/ml by turbidimetric method; type: functional, Oryctolagus cuniculus
Platelet [18] = assay: Inhibition of platelet-activity factor-induced platelet aggregation in rabbit platelet-rich plasma at 25 ug/ml by turbidimetric method; type: functional, Oryctolagus cuniculus
Aorta [19] = assay: Vasorelaxant activity against high potassium-induced contraction in Wistar rat thoracic aorta at 50 ug/ml; type: functional
Aorta [20] = assay: Vasorelaxant activity against norepinephrine-induced phasic contraction in Wistar rat thoracic aorta at 50 ug/ml; type: functional
Aorta [21] = assay: Vasorelaxant activity against norepinephrine-induced tonic contraction in Wistar rat thoracic aorta at 50 ug/ml; type: functional
Aorta [22] = assay: Vasorelaxant activity against high potassium-induced contraction in Wistar rat thoracic aorta at 1 ug/ml; type: functional
Aorta [23] = assay: Vasorelaxant activity against norepinephrine-induced tonic contraction in Wistar rat thoracic aorta at 1 ug/ml; type: functional
Aorta [24] = assay: Vasorelaxant activity against norepinephrine-induced phasic contraction in Wistar rat thoracic aorta at 1 ug/ml; type: functional

Structure (SMILES)	Activity (Platelet [1]) [%]	Activity (Platelet [2]) [%]	Activity (Platelet [3]) [%]	Activity (Platelet [4]) [%]	Activity (Aorta [5]) [%]	Activity (Aorta [6]) [%]	Activity (Aorta [7]) [%]	also measured
COc1ccc(C[C@@H]2c3cc(OC)c(OC)cc3CCN2C)cc1OC	92.5	92.2	81.2	81.4	–	–	–	–
COc1cc2ccc3c(CCN(C)C)cc4c(c3c2cc1OC)OCO4	80.5	34.9	46.9	6.1	7.1	44.6	0	–
COc1ccc2c(ccc3c(CCN(C)O)cc4c(c32)OCO4)c1	–	–	–	–	102	55.8	91.9	Activity (Platelet [8]): 58.6%; Activity (Platelet [9]): 0%; Activity (Platelet [10]): 74.8%; Activity (Platelet [11]): 23.5%
COc1cc(CC[N+](C)(C)[O-])c2ccc3ccccc3c2c1OC	61.1	37.4	0	0	30	5.8	27.5	–
COc1cc2ccc3c(CC[N+](C)(C)[O-])cc(OC)c(OC)c3c2cc1OC	87.2	74.6	83.5	52.1	–	–	–	Activity (Aorta [12]): 104.2%; Activity (Aorta [13]): 72.5%; Activity (Aorta [14]): 83.2%
COc1cc2c(cc1OC)[C@H](Cc1ccc(O)cc1)NCC2.[O-][Cl+3]([O-])([O-])O	78.2	63.1	60.5	83.6	100	43	90.5	–
COc1ccc(C[C@@H]2NCCc3cc(OC)c(OC)cc32)cc1.O=C(O)C(=O)O	91.4	93.4	87.3	86.6	–	–	–	–
COc1ccc(C[C@H]2NCCc3cc(OC)c(OC)cc32)cc1	90.7	93.1	89.2	79.2	–	–	–	–
COc1cc2c(cc1OC)[C@H](Cc1ccc(O)cc1)N(C)CC2.O=C(O)C(=O)O	91.5	89.7	79.5	82.4	–	–	–	–
COc1cc2c(cc1OC)[C@@H](Cc1ccc(O)cc1)N(C)CC2.O=C(O)C(=O)O	93.6	92.7	91.3	88.4	–	–	–	–
COc1cc2c(cc1OC)[C@H](Cc1ccc(O)cc1)[N+](C)(C)CC2.[I-]	88.4	93.7	66.8	39.6	–	–	–	–
COc1cc2c(cc1OC)C(Cc1ccc(O)cc1)NCC2 (racemic)	86.4	30.4	49.7	24.7	103	107.8	95.7	–
COc1cc2c(cc1O)C(Cc1ccc(O)cc1)NCC2 (racemic) [COCLAURINE]	72.7	70.2	0	69.7	100	109.9	93.7	–
COc1cc2c(cc1O)C(Cc1ccc(O)cc1)N(C)CC2 (racemic) [METHYL COCLAURINE]	75.7	73.6	13.8	24.8	–	–	–	Activity (Aorta [12]): 70.8%; Activity (Aorta [13]): 149.6%; Activity (Aorta [14]): 106.6%
COc1ccc(C[C@H]2c3cc(O)c(OC)cc3CCN2C)cc1O [(S)-RETICULINE]	85.9	58.7	39.2	84.2	100	109.3	110.5	–
CC(=O)Oc1ccccc1C(=O)O [ASPIRIN]	–	–	–	–	–	–	–	Activity (Platelet [15]): 87.8%; Activity (Platelet [16]): 77.9%; Activity (Platelet [17]): 0%; Activity (Platelet [18]): 90.4%
COc1cc(CCN(C)C)c2ccc3ccccc3c2c1OC.[O-][Cl+3]([O-])([O-])O [ATHEROSPERMININE HCLO4]	0	0	0	0	0	0	0	–
COc1cc(CC[N+](C)(C)C)c2ccc3ccccc3c2c1OC.[I-] [ATHEROSPERMINIUM I]	0	0	0	0	–	–	–	Activity (Aorta [12]): 38.3%; Activity (Aorta [13]): 108.3%; Activity (Aorta [14]): 100.5%
COc1ccc(C[C@H]2c3cc(OC)c(OC)cc3CCN2C)cc1O [LAUDANIDINE]	–	–	–	–	–	–	–	Activity (Platelet [8]): 77.6%; Activity (Platelet [9]): 89%; Activity (Platelet [10]): 90%; Activity (Platelet [11]): 87.9%; Activity (Aorta [19]): 105%; Activity (Aorta [20]): 58.5%; Activity (Aorta [21]): 80.9%
COc1cc2c(cc1O)[C@@H](Cc1ccc(O)cc1)[N+](C)(C)CC2.[I-] [MAGNOCURARINE IODIDE]	23.2	69	87.4	87.7	122.5	134.7	123.5	–
COC(=O)C1=C(C)NC(C)=C(C(=O)OC)C1c1ccccc1[N+](=O)[O-] [NIFEDIPINE]	–	–	–	–	–	–	–	Activity (Aorta [22]): 0%
COc1cc2c(cc1OC)[C@H](Cc1ccc(O)cc1)NCC2 [NORARMEPAVINE]	57.8	69.7	75.5	83.4	121.9	71.2	105.7	–
COc1cc2nc(N3CCN(C(=O)c4ccco4)CC3)nc(N)c2cc1OC [PRAZOSIN]	–	–	–	–	–	–	–	Activity (Aorta [23]): 100%; Activity (Aorta [24]): 0%
